Tests used:
mPPARalphaLBD = biological target: T1, mPPARalphaLBD (Mus musculus, UniProt P23204); assay: PPARalpha transactivation assay (mPPARalphaLBD); format: cell-based
T1 construct: expressed in transfected cells
T1 sequence (P23204 239-466 limits assumed): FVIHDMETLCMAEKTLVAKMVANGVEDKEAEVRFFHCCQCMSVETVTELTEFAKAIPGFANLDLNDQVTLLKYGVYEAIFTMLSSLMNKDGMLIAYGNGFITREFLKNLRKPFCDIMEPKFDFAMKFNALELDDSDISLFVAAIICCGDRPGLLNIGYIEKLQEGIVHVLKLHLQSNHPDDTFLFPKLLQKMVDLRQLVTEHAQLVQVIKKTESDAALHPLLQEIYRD
Protocol: This example describes a transactivation assay for determining PPARalpha modulating activity.
DPD and other ligands are tested for their ability to transactivate PPAR alpha essentially as described in Example 1.

[1] = tested on: human cervical carcinoma cell line (HeLa); assay: Inhibition of cancer cell proliferation, HeLa, flow cytometry; format: cell-based; conditions: 48 hours of treatment, read-out: inhibition of proliferation of HeLa cells
Protocol: A human cervical carcinoma cell line (HeLa) engineered to stably express a recombinant biosensor reporter activity and a non-cancer cell line, HaCaT (Boukamp et al., 1988, J. Cell Biol 106(3):761-771) was used with a Caspa Tag kit (commercially available eg from Chemicon). The detection of proliferation was carried out using a high content screening automated flow cytometer.
DPD (Substance 1) was diluted to 20 microM in cell culture medium without serum adjusted to 1% DMSO. Detection of cellular events was performed in duplicate in 96-well plates after 48 hours of treatment in the FL2 (dilution of a proliferative marker) channels of a HTS flow cytometer (FACS Calibur HTS, Becton Dickenson). At day 1, cells were seeded in 96 well plates. Cells were treated with DPD and the appropriate controls on day 2 and analysis was carried out on day 4.

3T3-L1 / MEFs = assay: Adipocyte differentiation assay, induction, Oil Red O staining; format: cell-based, mouse; conditions: induction assay, Oil Red O
Protocol: This example describes an assay for determining adipocyte differention. Compounds are tested to see whether they induce adipocyte differentiation and also to see whether they inhibit adipocyte differention.
MEFs were grown in AmnioMax basal medium (Gibco) supplemented with 7.5% Amniomax supplement C-100 (Gibco), 7.5% Fetal Bovine Serum (FBS), 2 mM Glutamine, 62.5 μg/ml penicillin and 100 μg/ml Streptomycin (growth medium). At confluence, MEFs were induced to differentiation in growth medium with the addition of 1 microM dexamethasone (Sigma) 0.5 mM isobutylmethylxanthine (Sigma), 5 microg/ml insulin (Sigma) and 10 microM test compound dissolved in DMSO or DMSO alone. Medium was subsequently renewed every 48 hrs with growth media supplemented with 5 microg/ml Insulin and ligand or DMSO.
Briefly, to test compounds as inducers of adipocyte differentiation, 3T3-L1 are grown to confluence in DMEM with 10% Calf serum (CS), typically in 24 well dishes. At 2 days post confluence (day 0), cells are induced to differentiate with DMEM supplemented with 10% fetal bovine serum (FBS), 1 μM dexamethasone and the test compound ([…], 1 and 10 microM). BRL49653 (1.0 μM dissolved in 100% Me2SO) is used as a positive control. After 48 h, the cells are re-fed with DMEM containing 10% FBS supplemented with the test compound or the positive control. From day 4, cells are grown in DMEM with 10% FBS and are changed every second day until day 8. At day 8, cells are stained with Oil Red O as described below.
Cells cultured as described above are used for Oil Red staining. Dishes are washed in PBS and cells were fixed in 3.7% paraformaldehyde for 1 h and stained with oil red O as described in (Hansen et al 1999). Oil red O solution stock solution is prepared by dissolving 0.5 g of Oil Red O (Sigma) in 100 ml of isopropanol. Oil re O working solution is prepared by diluting a stock solution with water (6:4) followed by filtration.
Table II summarizes results obtained with different analogs of DPD (SN1), “0” representing similar results to DPD, “−1” representing even less adipocyte differentiation, “+1” representing more adipocyte differentiation (both relative to DPD) and “−” meaning not assayed.

full-length hPPARdelta = biological target: T2, full-length hPPARdelta (Homo sapiens, UniProt Q03181); assay: Transactivation assay with full length human PPAR delta; format: cell-based
T2 construct: expressed in transfected cells
T2 sequence (Q03181 1-441): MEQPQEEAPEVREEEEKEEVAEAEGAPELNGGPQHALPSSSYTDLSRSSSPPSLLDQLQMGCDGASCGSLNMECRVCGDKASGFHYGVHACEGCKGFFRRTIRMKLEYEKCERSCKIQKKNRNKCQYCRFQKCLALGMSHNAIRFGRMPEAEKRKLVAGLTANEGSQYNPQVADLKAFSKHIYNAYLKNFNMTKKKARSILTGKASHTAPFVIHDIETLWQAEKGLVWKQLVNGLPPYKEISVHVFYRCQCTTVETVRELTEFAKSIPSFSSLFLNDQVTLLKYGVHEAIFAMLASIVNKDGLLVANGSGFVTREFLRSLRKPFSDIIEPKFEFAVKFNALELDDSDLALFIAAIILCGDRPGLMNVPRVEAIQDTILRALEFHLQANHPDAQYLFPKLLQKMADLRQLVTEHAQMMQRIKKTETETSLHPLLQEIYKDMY

human pre-adipocytes = assay: Adipocyte differentiation assay using human pre-adipocytes; format: cell-based; conditions: similar to DMSO

increase of PPAR alpha transactivation (mPPARalphaLBD): no transactivation | activation of full-length hPPARdelta (full-length hPPARdelta): no activation was seen
Compound: O=C(O)CC/C=C\C[C@@H]1CO[C@H](c2ccccc2Cl)O[C@@H]1c1ccccc1O (racemic) [SN1, 4-(Z)-6-(2-o-chlorophenyl-4-o-hydroxyphenyl-1,3-dioxan-cis-5-yl) hexenoic acid]
inhibition at 20 µM [1]: 90% | induction of adipocyte differentiation (red staining), in words (3T3-L1 / MEFs): very little red staining | red staining in human pre-adipocytes (human pre-adipocytes): very little red staining

Reference: patent publication US20140288110A1, “PPAR MODULATORS” (EVOLVA SA, priority 2006, published 2014)
